Results on one molecule are retold here after patent publication US20050261197A1, “Coffee bean extract, method of extraction and composition containing the same” (priority 2004, published 2005).

Series [1] deals with Adjuvant Induced Arthritis in Rats. The experiment in a line: Adjuvant-induced arthritis model in rats (paw weight, anti-inflammatory activity). It counts as in vivo, male Sprague-Dawley rats. To be noted: oral gavage once per day for 11 days; for Raw Paw Weight: Day 11, group average. The method, then:
Adjuvant-induced arthritis responds to both steroids and non-steroids. The degree of inflammation will be assessed by measuring differences in foot weight and/or the foot volume.
(§1) Rats weighting between 275-310 g were purchased from Animal Technologies Ltd., Kent, Wash. They were male Sprague-Dawley rats. The animals were kept individually in stainless steel cages with free access to water and feed (Harlan Teklan Rodent Diet). The light cycle was maintained at 12 hours light and 12 hours dark. The temperature was maintained at 22° C.±3° C. with a relative humidity of 40 to 70%.
The composite was prepared by combining the isolated compounds genistein, flavionic acid, diadzien, diadzin and the peptide having the sequence Tyrosine-Glycine-Serine-Arginine-Serine. One milligram of each was mixed into 9 ml of distilled water and 1 ml of alcohol. The mixture was then diluted in order to deliver by daily gavage one and 10 mcg doses per kilo body weight.
(§2) The test materials were delivered orally (by gavage) once per day for 11 days.
Male Sprague-Dawley rats (275-310 g) were sensitized by injecting Fruend's complete adjuvant (0.5% suspension of killed mycobacterium tuberculosis (H37RA, Difco, in mineral oil)). A 0.1 ml aliquot was administered intradermally at a plantar site on the right hind leg of each rat.
(§3) The test materials were given orally (by gavage) to each of 5 rats per treatment group once per day for 11 days. Administration of the test materials was initiated on the day of induction of inflammation.
(§4) The left hind paw was measured just before sensitization and again on Day 11. The plantar edema inhibitory rate and the body weight gain rate were determined by comparison with the non-sensitized rat groups.
The paw weights for each group were averaged. Anti-inflammatory activity was determined by comparing paw weights calculated as follows: [formula]
Hydrocortisone was used as a positive control. It is a common anti-inflammatory given to rheumatoid arthritis patients at a dose of 10 mg/kg body weight. The composite of the invention was given at 10 mcg/kg and 1 mcg/kg body weight.

Series [2] can be described thus: 11-day body weight gain of rats in the adjuvant-induced arthritis study. The series is classed as in vivo, male Sprague-Dawley rats. Conditions: for Avg. Final Body wt. / Avg. Weight Gain: oral gavage once per day for 11 days. The method, then: as §1, §2, §3, §4

The inhibition is the share of the control response that was lost under treatment.

For `C[C@]12CCC(=O)C=C1CC[C@@H]1[C@@H]2[C@@H](O)C[C@@]2(C)[C@H]1CC[C@]2(O)C(=O)CO` [Hydrocortisone], the “Raw Paw Weight” value is given as 0.80 g in series [1] (1 mcg/kg body wt.) and 0.76 g in series [1] (10 mcg/kg body wt.). In addition, the inhibition at 0.001 mg/kg in series [1] (Rattus norvegicus, 264 h, 1 mcg/kg body wt., calculated from paw weights) was 50%. Moreover, the inhibition at 0.01 mg/kg in series [1] (Rattus norvegicus, 264 h, 10 mcg/kg body wt., calculated from paw weights) is 58%. The “Avg. Final Body wt.” value amounted to 331.0 g in series [2] (1 mcg/kg body wt.) and 317.0 g in series [2] (10 mcg/kg body wt.). Further, the “Avg. Weight Gain” value in series [2] (1 mcg/kg body wt.) is 31.4 g; in series [2] (10 mcg/kg body wt.), 23.6 g. Moreover, the “reduction in weight gain” value in series [2] (10 mcg/kg body weight, 11 days, versus controls) is around 50%.
